Measured values from US7285618B1, “Polypeptides having neutrophil stimulating activity” (Japan Tobacco Inc., priority 2000, dated 2007).

Test system: differentiated HL60 cells
Protocol: The differentiated HL60 cells and human leukocyte cells were washed three times with ice-cooled 0.1% BSA containing Hepes buffered Hank's solution (HBHS; 10 mM Hepes, 136.9 mM NaCl, 5.4 mM KCl, 1.2 mM CaCl2, 0.44 mM KH2PO4, 0.49 mM MgCl2, 0.41 mM MgSO4, 0.34 mM Na2HPO4, 5.5 mM glucose, 4.2 mM NaHCO3, pH 7.4). A cell suspension was prepared for each cell type at 5.5×10^6 cells/ml. Cytochalasin B and DNase I were then added to each cell suspension at a final concentration of 5 μg/ml. Ninety μl of each cell suspension was then transferred to an ice-cooled tube (5.0×10^5 cells/tube) and incubated at 37° C. for 10 minute. To each tube, either one of the fractions of polypeptide (or extract) in solution (10 μl) was added and incubated at 37° C. for 10 minutes to stimulate the cells. Immediately after the treatment, 200 μl of ice-cooled reaction quenching buffer (25 mM Tris, 123 mM NaCl, 2.7 mM KCl, pH 7.4) was added to the cell suspensions to stop the stimulation. Thereafter, the tubes were spun down at 4° C. for 60 seconds to precipitate the cell pellets and the β-HA activity and the lactate dehydrogenase (LDH) activity in the supernatant were measured.
The amount of LDH secreted into the reaction mixture was determined by measuring the absorbance (340 nm) of NADH generated by reduction of that NAD involves dehydrogenation of lactate. Reaction was initiated by adding a 400 μl of a substrate-buffer solution (125 mM 2-amino-2-methyl-1-propanol, 125 mM lithium lactate, 6.25 mM NAD, pH 9.5) to a 100 μl of the reaction supernatant. Following a 1-hr incubation at 37° C., the mixture was quenched in ice water to stop the reaction and the absorbance at 340 nm was measured.
The LDH enzyme activity secreted in the reaction mixture was expressed as the percentage of the total enzyme activity in cells (%/total) which was the enzyme activity of LDH released upon disruption of the cells with 0.05% Triton X-100.

CSCC[C@H](NC=O)C(=O)N[C@@H](CC(C)C)C(=O)N[C@@H](Cc1ccccc1)C(=O)O [fMLP, formyl methionyl-leucyl-phenylalanine, reference compound]
LDH leakage from the HL60 cells: neither of COSP-1 and fMLP caused LDH leakage
